18 compounds from patent US10023591B2, “Heterocyclic derivatives and use thereof” (C&C RESEARCH LABORATORIES, priority 2014, dated 2018) can be followed below.

One assay relates to STAT1. The assay is described as follows: STAT1 reporter gene assay (luciferase), U2OS stable cell line pGL4-STAT1-TA-luc, IFN-γ stimulation. In kind it is cell-based, human. The note with it: IFN-γ 50 ng/mL, 8 hours, read-out: IC50 (μM) pSTAT1. The protocol: 1-2) Experiment on the Inhibition of STAT1 Activity
A human osteosarcoma cell line (U2OS stable cell line; pGL4-STAT1-TA-luc), which contains a stably operating STAT1 promoter, was cultured in McCoy 5′A medium (Cat No. 16600, Life Technologies) containing 10% FBS (Cat No. SH30396, Thermo Scientific) and 1000 μg/mL G418 solution (Cat No. 04 727 894 001, Roche). The reporter gene assay using U2OS stable cell line was performed in McCoy 5′A medium containing 10% FBS without G-418 solution. U2OS stable cells were plated in two (2) white 96-well plates with 25,000 cells/50 pt in each well. The cells were cultured at 37° C., under 5% CO2 for 24 hours, and then treated with the compounds listed in Examples which were diluted in various concentrations. Subsequently, IFN-γ was added to each well with a final concentration of 50 ng/mL. Upon completion of the treatment with the compounds and IFN-γ, the cells were cultured at 37° C., under 5% CO2 for 8 hours. The plates were observed under microscope and drug precipitation and particular findings were investigated and recorded.
(§1) The luciferase assay and the cell viability assay were performed respectively with one of two plates. For the luciferase assay, the liquid media in the 96-well plate was removed, and then, 20 μL of passive cell lysis buffer was added to each well. After shaking the plate for 30 minutes, luciferase activities of each well were measured in a PHERAstar™ microplate reader (BMG LABTECH) using a luciferase assay system (Cat No. E1501, Promega). For the cell viability assay, the 96-well plate was placed at room temperature for 30 minutes, added with 20 μL/well of CellTiter-Glo solution (Cat No. G7573, Promega), and shaken for 10 minutes in order to measure cytotoxicity caused by the compounds listed in Examples with a PHERAstar™ microplate reader (BMG LABTECH). Wells without 0.1% DMSO and stimulation were used as a negative control and wells with 0.1% DMSO and stimulation were used as a positive control.
(§2) The results of evaluation on the inhibitory effect of the compounds listed in the Examples on the dimerization of STAT3 and STAT1 obtained via the STAT3 and STAT1 reporter gene assays are shown in Table 9 below.

Another assay concerns STAT3. The assay is described as follows: STAT3 reporter gene assay (luciferase), LNCaP stable cell line pSTAT3-TA-luc, IL-6 stimulation. The class given is cell-based, human. The protocol:
1-1) Experiment on the Inhibition of STAT3 Activity
A human prostate cancer cell line (LNCaP stable cell line; plasmid pSTAT3-TA-luc), which contains a stably operating STAT3 promoter, was cultured in RPMI1640 medium (Cat No. 11875, Life Technologies) containing 10% fetal bovine serum (FBS) (Cat No. SH30396, Thermo Scientific) and 150 μg/mL G-418 solution (Cat No. 04 727 894 001, Roche). The reporter gene assay using LNCaP stable cell line was performed in RPMI1640 medium containing 3% DCC-FBS without G-418 solution. LNCaP stable cells were plated in two (2) white 96-well plates with 30,000 cells/50 μL in each well. The cells were cultured at 37° C., under 5% CO2 for 24 hours, and then treated with the compounds listed in Examples which were diluted in various concentrations. Subsequently, IL-6 was added to each well with a final concentration of 10 ng/mL. Upon completion of the treatment with the compounds and IL-6, the cells were cultured at 37° C., under 5% CO2 for 24 hours. The plates were observed under microscope and drug precipitation and particular findings were investigated and recorded.
as §1, with “one of the two plates.” for “one of two plates.”, “then, 20 μL, of passive” for “then, 20 μL of passive”
as §2
For orientation: In a reporter assay the amount or activity of a reporter protein is the signal.

Like-named read-outs stand apart in the source and are kept apart here.

One may read the IC50 as the midpoint of a concentration-inhibition curve. Consider “N-(3-chloro-5-(2-(3-chloro-5-methoxyphenyl)propan-2-yl)phenyl)-5-(2-(methylsulfonyl)propan-2-yl)benzo[b]thiophene-2-carboxamide [Example 55]”, for which the results for the IC50 in the assay with STAT1 and in the assay on STAT3 were more than 50 µM and 0.0022 µM, respectively.
`COc1cc(OC(F)(F)F)cc(C(C)(C)c2cc(Cl)cc(NC(=O)c3cc4cc(C(C)(C)S(C)(=O)=O)ccc4s3)c2)c1` [Example 7, N-(3-chloro-5-(2-(3-methoxy-5-(trifluoromethoxy)phenyl)propan-2-yl)phenyl)-5-(2-(methylsulfonyl)propan-2-yl)benzo[b]thiophene-2-carboxamide]: the results for the IC50 in the assay with STAT1 (Homo sapiens) and with STAT3 (Homo sapiens) were more than 50 µM and 0.0088 µM, respectively.
In the same order, the values of `CC(C)(c1ccc2sc(C(=O)Nc3cc(Cl)nc(Oc4ccc(Cl)cc4)n3)cc2c1)S(C)(=O)=O` [Example 76, N-(6-chloro-2-(4-chlorophenoxy)pyrimidin-4-yl)-5-(2-(methylsulfonyl)propan-2-yl)benzo[b]thiophene-2-carboxamide] are 3.1 µM and 0.39 µM.
In the case of `CC(C)(c1ccc2sc(C(=O)Nc3cc(Cl)nc(OC4CCN5CCCC5C4)c3)cc2c1)S(C)(=O)=O` (stereo not drawn) [Example 102, N-(2-chloro-6-((octahydroindolizin-7-yl)oxy)pyridin-4-yl)-5-(2-(methylsulfonyl)propan-2-yl)benzo[b]thiophene-2-carboxamide], the IC50 in the assay with STAT1 (Homo sapiens) was found to be 14.5 µM; with STAT3 (Homo sapiens) it was 2.1 µM.
In the same order, the values of `CC(C)(c1cc2cc(C(=O)Nc3cc(Cl)cc(Oc4ccc(Cl)cc4)c3)sc2cn1)S(C)(=O)=O` [Example 50, N-(3-chloro-5-(4-chlorophenoxy)phenyl)-5-(2-(methylsulfonyl)propan-2-yl)thieno[2,3-c]pyridine-2-carboxamide] are more than 50 µM and 0.078 µM.
In the same order, the values of `CC(C)(c1ccc2sc(C(=O)Nc3cc(Cl)cc(Oc4ccc(Cl)cn4)c3)cc2c1)S(C)(=O)=O` [Example 61, N-(3-chloro-5-((5-chloropyridin-2-yl)oxy)phenyl)-5-(2-(methylsulfonyl)propan-2-yl)benzo[b]thiophene-2-carboxamide] are more than 50 µM and 0.08 µM.
In the same order, the values of `CCCOc1cc(OC(F)(F)F)cc(C(C)(C)c2cc(Cl)cc(NC(=O)c3cc4cc(C(C)(C)S(C)(=O)=O)ccc4s3)c2)c1` [Example 2, N-(3-chloro-5-(2-(3-propoxy-5-(trifluoromethoxy)phenyl)propan-2-yl)phenyl)-5-(2-(methylsulfonyl)propan-2-yl)benzo[b]thiophene-2-carboxamide] are more than 50 µM and 0.008 µM.
Take `COc1cc(OC(F)(F)F)cc(C(C)(C)c2cc(Cl)cc(NC(=O)c3cc4cc(C(C)(C)S(C)(=O)=O)ccc4s3)n2)c1` [Example 91, N-(4-chloro-6-(2-(3-methoxy-5-(trifluoromethoxy)phenyl)propan-2-yl)pyridin-2-yl)-5-(2-(methylsulfonyl)propan-2-yl)benzo[b]thiophene-2-carboxamide]: the results for the IC50 in the assay with STAT1 (Homo sapiens) and in the assay with STAT3 (Homo sapiens) were more than 50 µM and 0.0051 µM, respectively.
`CC(C)(c1ccc2sc(C(=O)Nc3cc(Cl)nc(Oc4ccc(Cl)nc4)c3)cc2c1)S(C)(=O)=O` [Example 65, N-(2-chloro-6-((6-chloropyridin-3-yl)oxy)pyridin-4-yl)-5-(2-(methylsulfonyl)propan-2-yl)benzo[b]thiophene-2-carboxamide]: the figures for the IC50 in the assay with STAT1 (Homo sapiens) and in the assay with STAT3 (Homo sapiens) were more than 50 µM and 0.079 µM, respectively.
For the compound `CC(C)(c1cc(Cl)cc(NC(=O)c2cc3cc(C(C)(C)S(C)(=O)=O)ccc3s2)c1)c1cc(OCCN2CCOCC2)cc(OC(F)(F)F)c1` [Example 8, N-(3-chloro-5-(2-(3-(2-morpholinoethoxy)-5-(trifluoromethoxy)phenyl)propan-2-yl)phenyl)-5-(2-(methylsulfonyl)propan-2-yl)benzo[b]thiophene-2-carboxamide], the IC50 was more than 50 µM in the assay with STAT1 (Homo sapiens) and 0.061 µM with STAT3 (Homo sapiens).
For the compound `COc1cc(NC(=O)c2cc3cc(C(C)(C)S(C)(=O)=O)ccc3s2)cc(C(C)(C)c2cc(OC)cc(OC(F)(F)F)c2)c1` [Example 6, N-(3-methoxy-5-(2-(3-methoxy-5-(trifluoromethoxy)phenyl)propan-2-yl)phenyl)-5-(2-(methylsulfonyl)propan-2-yl)benzo[b]thiophene-2-carboxamide], the IC50 in the assay with STAT1 (Homo sapiens) was more than 50 µM; in the assay on STAT3 (Homo sapiens) it was 0.019 µM.
In the same order, the values of `CC(C)(c1ccc2sc(C(=O)Nc3cc(Cl)nc(Oc4ccc(Cl)cn4)c3)cc2c1)S(C)(=O)=O` [Example 85, N-(2-chloro-6-((5-chloropyridin-2-yl)oxy)pyridin-4-yl)-5-(2-(methylsulfonyl)propan-2-yl)benzo[b]thiophene-2-carboxamide] are more than 50 µM and 0.11 µM.
With `COc1cc(OC(F)(F)F)cc(C(C)(C)c2cc(NC(=O)c3cc4cc(C(C)(C)S(C)(=O)=O)ccc4s3)cc(Cl)n2)c1` [Example 90, N-(2-chloro-6-(2-(3-methoxy-5-(trifluoromethoxy)phenyl)propan-2-yl)pyridin-4-yl)-5-(2-(methylsulfonyl)propan-2-yl)benzo[b]thiophene-2-carboxamide], the IC50 with STAT1 (Homo sapiens) was more than 50 µM; with STAT3 (Homo sapiens) it was 0.011 µM.
In the same order, the values of `COc1cc(OC(F)(F)F)cc(C(C)(C)c2cccc(NC(=O)c3cc4cc(C(C)(C)S(C)(=O)=O)ccc4s3)c2)c1` [Example 3, N-(3-(2-(3-methoxy-5-(trifluoromethoxy)phenyl)propan-2-yl)phenyl)-5-(2-(methylsulfonyl)propan-2-yl)benzo[b]thiophene-2-carboxamide] are more than 50 µM and 0.0098 µM.
In the same order, the values of `CC(C)(c1ccc2sc(C(=O)Nc3cc(Oc4ccc(Cl)cc4)nc(Cl)n3)cc2c1)S(C)(=O)=O` [Example 75, N-(2-chloro-6-(4-chlorophenoxy)pyrimidin-4-yl)-5-(2-(methylsulfonyl)propan-2-yl)benzo[b]thiophene-2-carboxamide] are more than 50 µM and 0.24 µM.
In the same order, the values of `COc1sccc1C(C)(C)c1cc(Cl)cc(NC(=O)c2cc3cc(C(C)(C)S(C)(=O)=O)ccc3s2)c1` [Example 30, N-(3-chloro-5-(2-(2-methoxythiophen-3-yl)propan-2-yl)phenyl)-5-(2-(methylsulfonyl)propan-2-yl)benzo[b]thiophene-2-carboxamide] are more than 50 µM and 0.0013 µM.
In the case of `CCOc1cc(OC(F)(F)F)cc(C(C)(C)c2cc(Cl)cc(NC(=O)c3cc4cc(C(C)(C)S(C)(=O)=O)ccc4s3)c2)c1` [Example 1, N-(3-chloro-5-(2-(3-ethoxy-5-(trifluoromethoxy)phenyl)propan-2-yl)phenyl)-5-(2-(methylsulfonyl)propan-2-yl)benzo[b]thiophene-2-carboxamide], the IC50 was more than 50 µM in the assay on STAT1 (Homo sapiens) and 0.0076 µM in the assay on STAT3 (Homo sapiens).
As for `CC(C)c1ccc(C(C)(C)c2cc(Cl)cc(NC(=O)c3cc4cc(C(C)(C)S(C)(=O)=O)ccc4s3)c2)s1` [Example 28, N-(3-chloro-5-(2-(5-isopropylthiophen-2-yl)propan-2-yl)phenyl)-5-(2-(methylsulfonyl)propan-2-yl)benzo[b]thiophene-2-carboxamide], the IC50 in the assay with STAT1 (Homo sapiens) is more than 50 µM; in the assay on STAT3 (Homo sapiens), 0.0085 µM.
